# From article PMC11397024, “Strategic Fluorination to Achieve a Potent, Selective, Metabolically Stable, and Orally Bioavailable Inhibitor of CSNK2” (Molecules, 2024)
# What was measured:
# [1] = system: A549-ACE2 cells; test: CellTiter-Glo cytotoxicity assay; format: cell-based, Human
# Experimental: (§1) A549-ACE2 cells were maintained in low-glucose DMEM (Gibco, Waltham, MA, USA) supplemented with 10% FBS, 1% NEAA, and 1% L-glutamine. No antibiotics were used. Cells were plated at 2000 cells/well in a 384-well plate (Costar, Glendale, AZ, USA) and incubated overnight (37 °C, 5% CO2) before adding the compound. Compounds were added in quadruplicate and incubated for 48 h. DMSO percentage was constant across all concentrations of the compound. Cell viability was measured using CellTiter-Glo2 (Promega, Madison, WI, USA) and the luminescence signal was read on a GloMax plate reader (Promega, Madison, WI, USA). Dose–response analysis was performed using GraphPad Prism.
# [2] = CellTiter-Glo cytotoxicity assay; format: cell-based, Human; settings: human, A549-ACE2 cells, 48 h, CellTiter-Glo, quadruplicate
# Experimental: as §1
# [3] = system: SARS-CoV-2; test: SARS-CoV-2 assay in A549-ACE2 cells; format: cell-based
# [4] = Kinetic solubility; format: physicochemical; settings: phosphate buffered saline, 22 °C, aqueous buffer, kinetic from dmso stock; PBS pH 7.4 from DMSO stock
# Experimental: Phosphate buffered saline (50 mL, PBS, Fisher (Pittsburgh, PA, USA), pH 7.4) was added to HPLC-grade H2O (450 mL) for a total dilution factor of 1:10 and a final PBS concentration of 1×. […] The final DMSO concentration was 2.0%, and the maximum theoretical compound concentration was 200 μM. The filter plate was heat-sealed for a 24 h incubation. The sample was placed on a rotary shaker (200 rpm) for 24 h at ambient temperature (21.6–22.8 °C) and then vacuum-filtered. All filtrates were injected into a chemiluminescent nitrogen detector for quantification. The equimolar nitrogen response of the detector was calibrated using standards that span the dynamic range of the instrument from 0.08 to 4500 μg/mL nitrogen. The filtrates were quantified with respect to this calibration curve. The calculated solubility values were corrected for background nitrogen present in DMSO and the media used to prepare the samples.
# [5] = target: T1, CLK1 (Homo sapiens, UniProt P49759); test: NanoBRET dose-response CLK1; format: cell-based
# T1 construct: purchased Promega (NanoBRET Target Engagement K192 Kinase Selectivity System)
# T1 sequence (P49759 whole entry): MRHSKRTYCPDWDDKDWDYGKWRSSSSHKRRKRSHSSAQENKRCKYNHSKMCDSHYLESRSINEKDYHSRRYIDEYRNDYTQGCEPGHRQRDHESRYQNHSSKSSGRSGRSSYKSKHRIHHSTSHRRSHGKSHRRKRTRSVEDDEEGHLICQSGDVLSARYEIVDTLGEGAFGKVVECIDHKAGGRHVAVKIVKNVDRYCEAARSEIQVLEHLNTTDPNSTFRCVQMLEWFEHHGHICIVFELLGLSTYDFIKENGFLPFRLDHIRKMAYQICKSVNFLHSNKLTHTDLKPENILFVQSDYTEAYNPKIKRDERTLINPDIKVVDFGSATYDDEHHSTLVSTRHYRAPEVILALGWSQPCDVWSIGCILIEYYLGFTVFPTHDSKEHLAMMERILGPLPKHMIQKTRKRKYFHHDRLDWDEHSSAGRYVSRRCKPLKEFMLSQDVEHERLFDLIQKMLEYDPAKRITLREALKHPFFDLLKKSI
# [6] = target: T2, CSNK2A1 (Homo sapiens, UniProt P68400); test: NanoBRET assay CSNK2A1; format: cell-based; settings: HEK293 cells, singlicate, read-out: CSNK2A1 pIC50 (converted)
# T2 construct: expressed in transfected cells; host or cells: HEK293
# T2 sequence (P68400 whole entry): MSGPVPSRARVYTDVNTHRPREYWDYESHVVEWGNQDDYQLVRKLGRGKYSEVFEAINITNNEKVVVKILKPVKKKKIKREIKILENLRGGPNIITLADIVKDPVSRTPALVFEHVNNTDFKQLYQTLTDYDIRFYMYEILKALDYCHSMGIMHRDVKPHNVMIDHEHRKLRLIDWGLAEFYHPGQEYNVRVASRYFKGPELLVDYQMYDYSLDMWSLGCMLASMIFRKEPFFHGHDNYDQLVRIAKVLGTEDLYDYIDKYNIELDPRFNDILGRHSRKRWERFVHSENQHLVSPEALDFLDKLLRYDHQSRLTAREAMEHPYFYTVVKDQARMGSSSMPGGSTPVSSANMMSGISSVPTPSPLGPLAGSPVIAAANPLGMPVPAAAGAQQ
# Experimental: Assays were run using a modified version of the previously published protocols. […] A transfection complex of DNA (10 μg/mL) was generated consisting of 9 μg/mL carrier DNA (Promega, Madison, WI, USA) and 1 μg/mL CSNK2A-NLuc fusion DNA in Opti-MEM without serum (Gibco). FuGENE HD (Promega) was added at 30 μL/mL to form a lipid–DNA complex. The solution was then mixed and incubated at room temperature for 20 min. The transfection complex was mixed with a 20× volume of HEK293 cells in DMEM/FBS to arrive at a final concentration of 200,000 cells/mL, and 100 μL/well was added to a 96-well plate that was incubated overnight at 37 °C and 5% CO2. The following day, the medium was removed via aspiration and replaced with 85 μL of Opti-MEM without phenol red. A total of 5 μL per well of 20× NanoBRET Tracer K10 (Promega) at 10 μM for CSNK2A1 or 5 μM for CSNK2A2 in Tracer Dilution Buffer (Promega N291B) was added to all wells, except the “no tracer” control wells. Test compounds (10 mM in DMSO) were diluted 100× in Opti-MEM media to prepare stock solutions and evaluated at 11 concentrations. A total of 10 μL per well of the 10-fold test compound stock solutions (final assay concentration of 0.1% DMSO) were added. […] The plates were read within 30 min on a GloMax Discover luminometer (Promega) equipped with a 450 nm BP filter (donor) and 600 nm LP filter (acceptor) using 0.3 s of integration time. […]
smiles,measurement,setting,value
"CCC(=O)Nc1cc(Nc2cc(NC3CC3)n3ncc(C#N)c3n2)c(F)cc1N1CCC[C@H](NC)C1 [Compound 2, (S)-N-(5-((3-cyano-7-(cyclopropylamino)pyrazolo[1,5-a]pyrimidin-5-yl)amino)-4-fluoro-2-(3-(methylamino)piperidin-1-yl)phenyl)propionamide]",cytotoxicity in A549-ACE2 cells,[1]; 0.1 μM,no toxicity
same,cytotoxicity in A549-ACE2 cells,[1]; 1.0 μM,low toxicity
same,"viability at 48 h, 0.1 µM",[2]; 0.1 μM,100%
same,"viability at 48 h, 1 µM",[2]; 1.0 μM,76%
same,IC90,[3]; Severe acute respiratory syndrome coronavirus 2,2200 nM
same,IC50,"[3]; Severe acute respiratory syndrome coronavirus 2, triplicate, read-out: SARS-CoV-2 pIC50 (converted)",316 nM
same,solubility kinetic at 24 h,[4],59 µg/mL
same,IC50,[5],29000 nM
same,IC50,[6],7.94 nM
